Laboratory results reported in patent US20090285888A1, “DERIVATIVES OF DIHYDROXYPHENYLALANINE” (priority 2006, published 2009).

Columns and labels:
[1] = tested on: nucleus accumbens of a freely moving rat; test: In vivo microdialysis of dopamine release in the nucleus accumbens of the freely moving rat; conditions: for Dose dependence of dopamine release in nucleus accumbens (in words): 25 and 50 mg/kg L-DOPA or equimolar doses, FIGS. 1-4; for Time-course of dopamine concentration in nucleus accumbens microdialysate (in words): ip, 30 min after benserazide, L-DOPA: higher dose (FIG. 1), compound 1: FIGS. 3 and 4
Protocol: The arrow indicates the moment of injection (ip: intraperitoneal) of L-DOPA (25 mg/kg body weight) 30 minutes after the administration of benserazide (10 mg/kg body weight, ip).
The arrow indicates the moment of injection (ip: intraperitoneal) of L-DOPA (50 mg/kg body weight) 30 minutes after the administration of benserazide (10 mg/kg body weight, ip, in 0.9% NaCl).
The arrow indicates the moment of injection (ip: intraperitoneal) of diacetyl-DOPA-ethylene glycol α-lipoic acid (equimolar dose to 25 mg/kg body weight L-DOPA) 30 minutes after the administration of benserazide (10 mg/kg body weight, ip in 0.9% NaCl).
The arrow indicates the moment of injection (ip: intraperitoneal) of diacetyl-DOPA-ethylene glycol α-lipoic acid (equimolar dose to 50 mg/kg body weight L-DOPA) 30 minutes after the administration of benserazide (10 mg/kg body weight, ip).
Furthermore, by the method of in vivo micro dialysis of the conscious and freely moving rat, experiments were carried out to test whether the production and release of dopamine in the nucleus accumbens, a part of the brain with dense innervation of dopamine-containing nerve cells, is increased upon administration of L-DOPA or compound 1. The advantage of said method consists in the fact that the time-course of the release of the messenger dopamine from the active nerve cells can be observed in the conscious and freely moving rat. […] Said strong increase and the high concentrations are not desired since several degradation products of dopamine and the oxygen radicals formed during the degradation of dopamine have damaging effects on nerve cells.

[2] = tested on: brain (striatum) of the rat; test: Concentration of dopamine, its metabolites, 5-HT and 5-HIAA in the striatum of benserazide-pretreated rats; assay type: in vivo; conditions: for 3-MT concentration in striatum (MV) / 5-HIAA concentration in striatum (MV) / 5-HT concentration in striatum (MV) / Dopac concentration in striatum (MV) / Dopamine concentration in striatum (MV) / HVA concentration in striatum (MV): 30 min after benserazide, tissue 90 min later
Protocol: (§1) The rats were pretreated with benserazide, an inhibitor of the aromatic amino acid decarboxylase, in order to reduce the degradation of the test compounds in the blood and to thus provide sufficient concentration of dopamine and α-lipoic acid in the brain. After 30 minutes, L-DOPA (standard therapy for Parkinson's disease) or compound 1, compound 2, compound 3 in doses equivalent to L-DOPA were injected into the peritoneum (intraperitoneal, ip). After a further 90 minutes, blood and brain tissue (striatum) were extracted. A lower dose (25 mg/kg body weight) and a higher dose (50 mg/kg body weight) of L-DOPA were selected.

blood plasma of rats = test: Concentration of dopamine, its metabolites, 5-HT and 5-HIAA in the blood plasma of benserazide-pretreated rats; assay type: in vivo, rat; conditions: for 3-MT concentration in blood plasma (MV) / 5-HIAA concentration in blood plasma (MV) / 5-HT concentration in blood plasma (MV) / Dopac concentration in blood plasma (MV) / Dopamine concentration in blood plasma (MV) / HVA concentration in blood plasma (MV): 30 min after benserazide, blood 90 min later; for Formation of dopamine in the blood plasma (in words): low and higher doses
Protocol: as §1

[3] = 25 mg/kg L-DOPA or L-DOPA eq. ip
[4] = 50 mg/kg L-DOPA or L-DOPA eq. ip
[5] = higher doses (50 mg/kg L-DOPA eq.)
[6] = low doses (25 mg/kg L-DOPA eq.)

## CC(=O)Oc1ccc(C[C@H](N)C(=O)OCCOC(=O)CCCCC2CCSS2)cc1OC(C)=O (stereo partly drawn) [compound 1, O,O′-diacetyl-L-DOPA-ethylene glycol lipoic acid ester]
[1]
  Dose dependence of dopamine release in nucleus accumbens (in words): released in a dose-dependent manner
  Time-course of dopamine concentration in nucleus accumbens microdialysate (in words): two-peak-maximum and a less steep increase as well as a longer lasting effect
[2]; [3]
  3-MT concentration in striatum (MV): 308 pg per mg striatum
  5-HIAA concentration in striatum (MV): 706 pg per mg striatum
  5-HT concentration in striatum (MV): 355 pg per mg striatum
  Dopac concentration in striatum (MV): 4532 pg per mg striatum
  Dopamine concentration in striatum (MV): 11244 pg per mg striatum
  HVA concentration in striatum (MV): 2567 pg per mg striatum
[2]; [4]
  3-MT concentration in striatum (MV): 194 pg per mg striatum
  5-HIAA concentration in striatum (MV): 764 pg per mg striatum
  5-HT concentration in striatum (MV): 411 pg per mg striatum
  Dopac concentration in striatum (MV): 9549 pg per mg striatum
  Dopamine concentration in striatum (MV): 11695 pg per mg striatum
  HVA concentration in striatum (MV): 4314 pg per mg striatum
[2]; [5]
  Effect on the metabolites DOPAC and HVA in striatum (in words): increased
[2]; [6]
  Effect on the concentrations of dopamine in striatum (in words): do not lead to an increase
  Effect on the metabolites DOPAC and HVA in striatum (in words): increased
Blood plasma of rats; [3]
  3-MT concentration in blood plasma (MV): 8563 pg per ml plasma
  5-HIAA concentration in blood plasma (MV): 13852 pg per ml plasma
  5-HT concentration in blood plasma (MV): 8894 pg per ml plasma
  Dopac concentration in blood plasma (MV): 57257 pg per ml plasma
  Dopamine concentration in blood plasma (MV): 29782 pg per ml plasma
  HVA concentration in blood plasma (MV): 16836 pg per ml plasma
Blood plasma of rats; [4]
  3-MT concentration in blood plasma (MV): 6288 pg per ml plasma
  5-HIAA concentration in blood plasma (MV): 15367 pg per ml plasma
  5-HT concentration in blood plasma (MV): 12094 pg per ml plasma
  Dopac concentration in blood plasma (MV): 58266 pg per ml plasma
  Dopamine concentration in blood plasma (MV): 22129 pg per ml plasma
  HVA concentration in blood plasma (MV): 71658 pg per ml plasma
Blood plasma of rats
  Formation of dopamine in the blood plasma (in words): Dopamine is also formed

## O=C(CCCCC1CCSS1)NC(Cc1ccc(O)c(O)c1)C(=O)O [compound 3, L-DOPA-(D,L)-lipoic acid amide]
[2]; [3]
  3-MT concentration in striatum (MV): 292 pg per mg striatum
  5-HIAA concentration in striatum (MV): 620 pg per mg striatum
  5-HT concentration in striatum (MV): 340 pg per mg striatum
  Dopac concentration in striatum (MV): 1508 pg per mg striatum
  Dopamine concentration in striatum (MV): 10539 pg per mg striatum
  HVA concentration in striatum (MV): 1042 pg per mg striatum
[2]; [4]
  3-MT concentration in striatum (MV): 237 pg per mg striatum
  5-HIAA concentration in striatum (MV): 490 pg per mg striatum
  5-HT concentration in striatum (MV): 278 pg per mg striatum
  Dopac concentration in striatum (MV): 1788 pg per mg striatum
  Dopamine concentration in striatum (MV): 11488 pg per mg striatum
  HVA concentration in striatum (MV): 1244 pg per mg striatum
[2]; [5]
  Effect on the concentrations of dopamine in striatum (in words): led to an increase
  Effect on the metabolites DOPAC and HVA in striatum (in words): increased
[2]; [6]
  Effect on the concentrations of dopamine in striatum (in words): do not lead to an increase
  Effect on the metabolites DOPAC and HVA in striatum (in words): only HVA

## CC(=O)Oc1ccc(CC(NC(=O)CCCCC2CCSS2)C(=O)O)cc1OC(C)=O [compound 2, O,O′-diacetyl-L-DOPA-(R,S)-lipoic acid amide]
[2]; [3]
  3-MT concentration in striatum (MV): 267 pg per mg striatum
  5-HIAA concentration in striatum (MV): 780 pg per mg striatum
  5-HT concentration in striatum (MV): 438 pg per mg striatum
  Dopac concentration in striatum (MV): 6127 pg per mg striatum
  Dopamine concentration in striatum (MV): 10512 pg per mg striatum
  HVA concentration in striatum (MV): 1577 pg per mg striatum
[2]; [4]
  3-MT concentration in striatum (MV): 176 pg per mg striatum
  5-HIAA concentration in striatum (MV): 782 pg per mg striatum
  5-HT concentration in striatum (MV): 448 pg per mg striatum
  Dopac concentration in striatum (MV): 5697 pg per mg striatum
  Dopamine concentration in striatum (MV): 11485 pg per mg striatum
  HVA concentration in striatum (MV): 1742 pg per mg striatum
[2]; [5]
  Effect on the concentrations of dopamine in striatum (in words): led to an increase
  Effect on the metabolites DOPAC and HVA in striatum (in words): increased
[2]; [6]
  Effect on the concentrations of dopamine in striatum (in words): do not lead to an increase
  Effect on the metabolites DOPAC and HVA in striatum (in words): increased
[2]; rat, in vivo
  Effect on the concentration of 5-HT in striatum (in words): increased the concentration of 5-HT
Blood plasma of rats; [3]
  3-MT concentration in blood plasma (MV): 11480 pg per ml plasma
  5-HIAA concentration in blood plasma (MV): 8374 pg per ml plasma
  5-HT concentration in blood plasma (MV): 7966 pg per ml plasma
  Dopac concentration in blood plasma (MV): 52963 pg per ml plasma
  Dopamine concentration in blood plasma (MV): 23006 pg per ml plasma
  HVA concentration in blood plasma (MV): 44304 pg per ml plasma
Blood plasma of rats; [4]
  3-MT concentration in blood plasma (MV): 6121 pg per ml plasma
  5-HIAA concentration in blood plasma (MV): 12656 pg per ml plasma
  5-HT concentration in blood plasma (MV): 7494 pg per ml plasma
  Dopac concentration in blood plasma (MV): 57729 pg per ml plasma
  Dopamine concentration in blood plasma (MV): 21919 pg per ml plasma
  HVA concentration in blood plasma (MV): 42184 pg per ml plasma
Blood plasma of rats
  Formation of dopamine in the blood plasma (in words): Dopamine is also formed

## NC(Cc1ccc(O)c(O)c1)C(=O)O [L-DOPA, 2-amino-3-(3,4-dihydroxyphenyl)-propionic acid, reference compound]
[1]
  Dose dependence of dopamine release in nucleus accumbens (in words): released in a dose-dependent manner
  Time-course of dopamine concentration in nucleus accumbens microdialysate (in words): strongly increases
[2]; [3]
  3-MT concentration in striatum (MV): 312 pg per mg striatum
  5-HIAA concentration in striatum (MV): 711 pg per mg striatum
  5-HT concentration in striatum (MV): 365 pg per mg striatum
  Dopac concentration in striatum (MV): 3017 pg per mg striatum
  Dopamine concentration in striatum (MV): 10108 pg per mg striatum
  HVA concentration in striatum (MV): 1752 pg per mg striatum
[2]; [4]
  3-MT concentration in striatum (MV): 259 pg per mg striatum
  5-HIAA concentration in striatum (MV): 593 pg per mg striatum
  5-HT concentration in striatum (MV): 366 pg per mg striatum
  Dopac concentration in striatum (MV): 9159 pg per mg striatum
  Dopamine concentration in striatum (MV): 11844 pg per mg striatum
  HVA concentration in striatum (MV): 4550 pg per mg striatum
[2]; [5]
  Effect on the concentrations of dopamine in striatum (in words): led to an increase
  Effect on the metabolites DOPAC and HVA in striatum (in words): increased
[2]; [6]
  Effect on the concentrations of dopamine in striatum (in words): do not lead to an increase
  Effect on the metabolites DOPAC and HVA in striatum (in words): increased
Blood plasma of rats; [3]
  3-MT concentration in blood plasma (MV): 11897 pg per ml plasma
  5-HIAA concentration in blood plasma (MV): 18687 pg per ml plasma
  5-HT concentration in blood plasma (MV): 3089 pg per ml plasma
  Dopac concentration in blood plasma (MV): 20833 pg per ml plasma
  Dopamine concentration in blood plasma (MV): 20437 pg per ml plasma
  HVA concentration in blood plasma (MV): 9592 pg per ml plasma
Blood plasma of rats; [4]
  3-MT concentration in blood plasma (MV): 14711 pg per ml plasma
  5-HIAA concentration in blood plasma (MV): 11426 pg per ml plasma
  5-HT concentration in blood plasma (MV): 15108 pg per ml plasma
  Dopac concentration in blood plasma (MV): 38697 pg per ml plasma
  Dopamine concentration in blood plasma (MV): 31519 pg per ml plasma
  HVA concentration in blood plasma (MV): 69329 pg per ml plasma
Blood plasma of rats
  Formation of dopamine in the blood plasma (in words): dopamine is formed
